Source: PMC6222718, “Ethylenediamine Derived Carboxamides of Betulinic and Ursolic Acid as Potential Cytotoxic Agents” (Molecules : A Journal of Synthetic Chemistry and Natural …, 2018)

What was measured:
518A2 (melanoma) = assay: SRB cytotoxicity assay, 518A2; type: cell-based, human; conditions: for EC50: Homo sapiens, SRB assay, 96 h of treatment, 518A2; for Selectivity index (SI) 518A2: SI = EC50 (NIH 3T3)/EC50 (518A2)
Description: (§1) The cytotoxicity of ursolic and betulinic carboxamides 3–30 was determined in sulforhodamine B (SRB) assays.
(§2) The cell lines used were human cancer cell lines: 518A2 (melanoma), A2780 (ovarian carcinoma), HT29 (colon adenocarcinoma), MCF-7 (breast adenocarcinoma), 8505C (thyroid carcinoma) and non-malignant mouse fibroblasts NIH 3T3. Cultures were maintained as monolayers in RPMI 1640 medium with L-glutamine (Capricorn Scientific GmbH, Ebsdorfergrund, Germany) supplemented with 10% heat inactivated fetal bovineserum (Sigma-Aldrich Chemie GmbH, Steinheim, Germany) and penicillin/streptomycin (Capricorn Scientific GmbH, Ebsdorfergrund, Germany) at 37 °C in a humidified atmosphere with 5% CO2.
(§3) The cytotoxicity of the compounds was evaluated using the sulforhodamine-B (Kiton-Red S, ABCR) micro culture colorimetric assay. Cells were seeded into 96-well plates on day 0 at appropriate cell densities to prevent confluence of the cells during the period of experiment. After 24 h, the cells were treated with 6 different concentrations (1, 3, 7, 12, 20 and 30 µM) minimum. The final concentration of DMSO/DMF never exceeded 0.5%, which was non-toxic to the cells. After a 96 h treatment, the supernatant medium from the 96-well plates was discarded, the cells were fixed with 10% trichloroacetic acid (TCA) and allowed to rest at 4 °C. After 24 h fixation, the cells were washed in a strip washer and dyed with SRB solution (100 µL, 0.4% in 1% acetic acid) for about 20 min. After dying, the plates were washed four times with 1% acetic acid to remove the excess of the dye and allowed to air-dry overnight. Tris base solution (200 µL, 10 mM) was added to each well and absorbance was measured at λ = 570 nm using a 96-well plate reader (Tecan Spectra, Crailsheim, Germany). The EC50 values were averaged from three independent experiments performed each in triplicate calculated from semi logarithmic dose response curves applying a non-linear 4P Hills-slope equation (GraphPad Prism5; variables top and bottom were set to 100 and 0, respectively).

[1] = test system: A2780 (ovarian carcinoma); assay: SRB cytotoxicity assay, A2780; type: cell-based, human; conditions: for EC50: Homo sapiens, SRB assay, 96 h of treatment, A2780; for Selectivity index (SI) A2780: SI = EC50 (NIH 3T3)/EC50 (A2780)
Description: as §1, §2, §3

[2] = test system: HT29 (colon adenocarcinoma); assay: SRB cytotoxicity assay, HT29; type: cell-based, human; conditions: for EC50: Homo sapiens, HT-29, SRB assay, 96 h of treatment, HT29; for Selectivity index (SI) HT29: SI = EC50 (NIH 3T3)/EC50 (HT29)
Description: as §1, §2, §3

[3] = test system: MCF-7 (breast adenocarcinoma); assay: SRB cytotoxicity assay, MCF-7; type: cell-based, human; conditions: for EC50: Homo sapiens, MCF7, SRB assay, 96 h of treatment, MCF-7; for Selectivity index (SI) MCF-7: SI = EC50 (NIH 3T3)/EC50 (MCF-7)
Description: as §1, §2, §3

[4] = test system: 8505C (thyroid carcinoma); assay: SRB cytotoxicity assay, 8505C; type: cell-based, human; conditions: for EC50: Homo sapiens, SRB assay, 96 h of treatment, 8505C; for Selectivity index (SI) 8505C: SI = EC50 (NIH 3T3)/EC50 (8505C)
Description: as §1, §2, §3

[5] = test system: non-malignant mouse fibroblasts NIH 3T3; assay: SRB cytotoxicity assay, NIH 3T3; type: cell-based; conditions: NIH3T3, 96 h of treatment
Description: as §1, §2, §3

Compound | melting point | EC50 (518A2 (melanoma)) | Selectivity index (SI) 518A2 (518A2 (melanoma)) | EC50 [1] | Selectivity index (SI) A2780 [1] | EC50 [2] | Selectivity index (SI) HT29 [2] | EC50 [3] | Selectivity index (SI) MCF-7 [3] | EC50 [4] | Selectivity index (SI) 8505C [4] | EC50 [5]
C[C@@H]1CC[C@]2(C(=O)NCCN(C)C)CC[C@]3(C)C(=CCC4[C@@]5(C)CC[C@H](O)C(C)(C)C5CC[C@]43C)C2[C@H]1C (stereo partly drawn) [Compound 11, (3β)-N-[2-(Dimethylamino)ethyl]-3-hydroxy-urs-12-en-28-amide] | 270 to 273 °C (dec.) | 6.6 ± 0.3 µM | 1.02 | 4.3 ± 0.5 µM | 1.56 | 3 ± 0.2 µM | 2.23 | 4.2 ± 0.9 µM | 1.60 | 7.3 ± 0.2 µM | 0.92 | 6.7 ± 1.3 µM
C=C(C)C1CC[C@]2(C(=O)NCCOCCN)CC[C@]3(C)C(CCC4[C@@]5(C)CC[C@H](OC(C)=O)C(C)(C)C5CC[C@]43C)C12 (stereo partly drawn) [Compound 23, (3β)-N-[2-(2-Aminoethoxy)ethyl]-3-acetyloxy-lup-20(29)-en-28-amide] | 109 to 112 °C | 1.9 ± 0.01 µM | 0.53 | 1.5 ± 0.1 µM | 0.67 | 0.4 ± 0.1 µM | 2.50 | 1.4 ± 0.2 µM | 0.71 | 2.2 ± 0.81 µM | 0.45 | 1 ± 0.1 µM
C=C(C)C1CC[C@]2(C(=O)NCCCCN)CC[C@]3(C)C(CCC4[C@@]5(C)CC[C@H](O)C(C)(C)C5CC[C@]43C)C12 (stereo partly drawn) [Compound 29, (3β)-N-(4-Aminobutyl)-3-hydroxy-lup-20(29)-en-28-amide] | 130 to 133 °C | 0.4 ± 0.06 µM | 1.25 | 0.6 ± 0.1 µM | 0.83 | 0.4 ± 0.1 µM | 1.25 | 0.6 ± 0.1 µM | 0.83 | 0.8 ± 0.26 µM | 0.63 | 0.5 ± 0.1 µM
C[C@@H]1CC[C@]2(C(=O)NCCN)CC[C@]3(C)C(=CCC4[C@@]5(C)CC[C@H](O)C(C)(C)C5CC[C@]43C)C2[C@H]1C (stereo partly drawn) [Compound 10, (3β)-N-(2-Aminoethyl)-3-hydroxy-urs-12-en-28-amide] | 139 to 142 °C | 3.7 ± 0.5 µM | 1.05 | 3.3 ± 0.1 µM | 1.18 | 2 ± 0.1 µM | 1.95 | 3.2 ± 0.3 µM | 1.22 | 3.7 ± 0.4 µM | 1.05 | 3.9 ± 0.1 µM
CC(=O)O[C@H]1CC[C@@]2(C)C(CC[C@]3(C)C2CC=C2C4[C@@H](C)[C@H](C)CC[C@]4(C(=O)NCCN4CCCC4)CC[C@]23C)C1(C)C (stereo partly drawn) [Compound 5, (3β)-N-(2-Pyrrolidin-1-ylethyl)-3-acetyloxy-urs-12-en-28-amide] | 156 to 159 °C | 4.5 ± 0.2 µM | 0.73 | 3.1 ± 0.2 µM | 1.06 | 2.1 ± 0.2 µM | 1.57 | 2.9 ± 0.7 µM | 1.14 | 4.3 ± 0.2 µM | 0.77 | 3.3 ± 0.3 µM
C=C(C)C1CC[C@]2(C(=O)NCCN(C)C)CC[C@]3(C)C(CCC4[C@@]5(C)CC[C@H](OC(C)=O)C(C)(C)C5CC[C@]43C)C12 (stereo partly drawn) [Compound 18, (3β)-N-[2-(Dimethylamino)ethyl]-3-acetyloxy-lup-20(29)-en-28-amide] | 108 to 110 °C | 1.3 ± 0.1 µM | 0.77 | 1.1 ± 0.05 µM | 0.91 | 0.3 ± 0.02 µM | 3.33 | 1 ± 0.3 µM | 1.00 | 1.4 ± 0.15 µM | 0.71 | 1 ± 0.4 µM

Further lines, with some results ahead:

melting point | Compound | EC50 (518A2 (melanoma)) | Selectivity index (SI) 518A2 (518A2 (melanoma)) | EC50 [1] | Selectivity index (SI) A2780 [1] | EC50 [2] | Selectivity index (SI) HT29 [2] | EC50 [3] | Selectivity index (SI) MCF-7 [3] | EC50 [4] | Selectivity index (SI) 8505C [4] | EC50 [5]
263 to 266 °C (dec.) | C[C@@H]1CC[C@]2(C(=O)NCCN3CCCC3)CC[C@]3(C)C(=CCC4[C@@]5(C)CC[C@H](O)C(C)(C)C5CC[C@]43C)C2[C@H]1C (stereo partly drawn) [Compound 12, (3β)-N-(2-Pyrrolidin-1-ylethyl)-3-hydroxy-urs-12-en-28-amide] | 5.5 ± 0.1 µM | 1.13 | 3.3 ± 0.3 µM | 1.88 | 2.6 ± 0.3 µM | 2.38 | 3.5 ± 1 µM | 1.77 | 5.7 ± 0.2 µM | 1.09 | 6.2 ± 0.4 µM
120 to 124 °C | C[C@@H]1CC[C@]2(C(=O)NCCN3CCCCC3)CC[C@]3(C)C(=CCC4[C@@]5(C)CC[C@H](O)C(C)(C)C5CC[C@]43C)C2[C@H]1C (stereo partly drawn) [Compound 13, (3β)-N-(2-Piperidin-1-ylethyl)-3-hydroxy-urs-12-en-28-amide] | 12.6 ± 0.2 µM | 0.28 | 7.6 ± 0.6 µM | 0.46 | 8.4 ± 0.7 µM | 0.42 | 11.1 ± 1.4 µM | 0.32 | 11.1 ± 0.3 µM | 0.32 | 3.5 ± 0.6 µM
177 to 180 °C | C[C@@H]1CC[C@]2(C(=O)NCCCCN)CC[C@]3(C)C(=CCC4[C@@]5(C)CC[C@H](O)C(C)(C)C5CC[C@]43C)C2[C@H]1C (stereo partly drawn) [Compound 15, (3β)-N-(4-Aminobutyl)-3-hydroxy-urs-12-en-28-amide] | 9.3 ± 0.1 µM | 0.60 | 5.4 ± 1.4 µM | 1.04 | 2.1 ± 0.3 µM | 2.67 | 5.5 ± 1.1 µM | 1.02 | 10.8 ± 1.2 µM | 0.52 | 5.6 ± 0.3 µM
